Key:
SKINETHIC™ RHE model = experiment: Tissue viability, MTT assay on 3D reconstructed human epidermis after topical application; assay type: cell-based; details: for Tissue viability / EC50: 24 hours; for Tissue viability: relative to untreated epidermis; for EC50 value / EC50: concentration reducing viability to 50% of control tissues; for EC50: probit-log regression
Description: (§1) The assay takes place in two steps: • Step 1: EC50 concentration finding assay is performed with one representative sample. • Step 2: determination of EC50 concentration values and IL-1α levels performed with both GA.
(§2) Prior to GA application, tissue inserts are transferred in 12-well plates prefilled with fresh maintenance medium. 60 µl/cm^2 of each GA solution is applied on top of epidermidis. After application, tissues are incubated for 24 hours at 37°C (±1 °C) and 5% ([…]) CO2.
(§3) The tissue viability is measured with the MTT assay performed in 24 hours. The MTT assay is based on the reduction of 3-(4,5-Dimethylthiazol-2-yl)-2,5-Diphenyltetrazolium Bromide (MTT) into insoluble purple formazan crystals, by metabolically active cells in a mitochondria-dependant reaction catalysed by succinate dehydrogenase. The ability of cells to reduce MTT after exposure to GA, compared to the control (untreated epidermis), enables to deduce the relative toxicity of the applied GA. The optical density (OD) of formazan solution is proportional to the number of viable cells.
(§4) After incubation, tissues are rinsed with PBS and then transferred into 24-well plates pre-filled with MTT solution. After 120 minutes (±10 minutes) of incubation at 37°C (±1 °C), the tissues are transferred into 24-well plates containing DMSO for extraction of formazan. Then the plates are stored overnight at room temperature. At the end of the extraction period, 3 x 200 µl aliquots of formazan extracts are transferred into a 96-well flat bottom microtiter plate and the optical density is read at 570 nm in a microplate reader.
(§5) The optical densities of each replicate are corrected by substracting the mean OD value of blank measured in parallel. The mean from corrected OD values (ODcorr) as well as standard deviation are calculated in each experimental group.
(§6) From the mean ODcorr values, the relative tissue viability (% viab) is calculated as a percentage of the mean viability of the control (untreated epidermis): % viab (treated) = ((treated) ODcorr mean)/((Control ODcorr mean) × 100. [formula]
(§7) The graph represents the dose response curve of cells viability (% viab) versus the GA concentration (C). The EC50 value is calculated from the dose response curve, by using the probit-log regression model.

interleukin 1α (IL-1α) = experiment: Inflammatory response, IL-1α release assay (ELISA) on reconstructed human epidermis; assay type: cell-based; details: IL-1α level normalized to tissue viability, 24 hours
Source text: The 3D reconstructed human epidermis (RhE) used as test system in the study, is the SKINETHIC™ RHE model commercially available from the company EPISKIN SA. The SKINETHIC™ RHE model is obtained by tissue engineering from untransformed human keratinocytes previously obtained from human epidermis. The model is described in the OECD 439 guideline for in vitro skin irritation of chemical products.
The assay is based on topical application of the tested GA at different concentrations on reconstructed human epidermis (RHE SkinEthic™), followed by evaluation of: • Tissue viability, by MTT colorimetric test to determine the concentration of test product needed to produce the viability to 50% of control tissues (EC50). • SkinEthic™ RHE tissue inflammatory response, by interleukin 1α (IL-1α) release assay.
as §2
At the end of the assay after 24 hours incubation period, the conditioned media underneath tissues are collected, aliquoted and stored at -20°C until IL-1α assay.
IL-1α is quantified using an Elisa kit (Quantikine Human IL-1α DLA50) according to the manufacturer's instructions. The optical densities are read at 450 nm.
IL-1α levels (pg/ml) are interpolated from the standard curve built with IL-1α standard provided with the Elisa kit. The mean of IL-1α release concentrations is calculated in each experimental group. For the comparative analysis, the IL-1α levels were normalized in function of tissue viability (MMT test). The values R (IL-1α/Viab%) ×100) have been calculated at different concentrations with the two GA and collected in the following Table 18: Table 18: IL-1α ratios.

[1] = Tissue viability, MTT assay on 3D reconstructed human epidermis after topical application; assay type: cell-based; details: human, 24 hours, relative to untreated epidermis
Description: as §1, §2, §3, §4, §5, §6, §7

skin = experiment: Usage test, panel questionnaire on skin quality; assay type: in vivo, human; details: between the 7th and the 14th day
Source text: A panel of 60 women with mature skin ranging from normal to dry, were selected to apply to each half of the face, the two tested items: GA-METEX and GA-CONTROL. The panelists were asked about their feeling after 7 and 14 days of daily application. The questionnaire covered items: nourished skin, uniform skin, smooth skin, luminous skin, finer skin texture, firm skin.

SMILES	Tissue viability (SKINETHIC™ RHE model; GA concentration 1.27%) [%]	Tissue viability (SKINETHIC™ RHE model; GA concentration 1.69%)	Tissue viability (SKINETHIC™ RHE model; GA concentration 2.25%) [%]	Tissue viability (SKINETHIC™ RHE model; GA concentration 3%) [%]	EC50 value (SKINETHIC™ RHE model) [%]	EC50 (SKINETHIC™ RHE model) [% p/v]	R (IL-1α/Viab%) ×100 (interleukin 1α (IL-1α); GA concentration 1.27%)	R (IL-1α/Viab%) ×100 (interleukin 1α (IL-1α); GA concentration 1.69%)	R (IL-1α/Viab%) ×100 (interleukin 1α (IL-1α); GA concentration 2.25%)	viability at 24 h, 1.27 % ([1]; GA concentration 1.27%) [%]	viability at 24 h, 3 % ([1]; GA concentration 3%) [%]	user satisfaction, evolution (skin)
O=C(O)CO [GA-CONTROL, Glycolic acid]	62.1	31.2%	10.5	3.4	1.42	1.42	15.09	35.33	75.07	–	–	–
O=C(O)CO [GA-METEX, Glycolic acid]	–	59,6%	22.2	–	1.70	1.70	10.42	18.26	35.56	74.9	3.5	significant increase in user satisfaction

From patent EP4631928A1, “METHOD OF PURIFICATION OF GLYCOLIC ACID, COMPOSITION AND USE THEREOF” (Metabolic Explorer, priority 2024, dated 2025)
